Experimental data: US20030069276A1, “Amino piperidine derivatives” (priority 2001, published 2003)

The molecules below were run against human CCR5 (Homo sapiens, UniProt P51681) (assay: gp120-sCD4-CCR5 binding assay (FACS)). Conditions: CHO-K1 cell line stably transfected with the human CCR5 gene; biotinylated gp120 (JRFL strain) and soluble recombinant CD4; 1% DMSO.
Protocol: gp120-sCD4-CCR5 Binding Assay:
The gp120-sCD4-CCR5 binding assay was carried out as previously described (Dragic, T., A. Trkola, et al. (2000). “A binding pocket for a small molecule inhibitor of HIV-1 entry within the transmembrane helices of CCR5.” Proc Natl Acad Sci USA 97: 5639-44.) with the following minor modifications: the cell line used for these experiments was a CHO-K1 cell line stably transfected with the human CCR5 gene; the gp120-CD4 complex comprised recombinant biotinylated gp120 (JRFL strain) and soluble recombinant CD4; and all compounds were tested in a final concentration of 1% DMSO.
All reagents and cell lines were obtained from Progenics Pharmaceuticals Inc, Tarrytown, N.Y., USA, and are commercially available or can be prepared according to the methods described and the information given in the papers above.

Chain of human CCR5 (P51681 whole entry): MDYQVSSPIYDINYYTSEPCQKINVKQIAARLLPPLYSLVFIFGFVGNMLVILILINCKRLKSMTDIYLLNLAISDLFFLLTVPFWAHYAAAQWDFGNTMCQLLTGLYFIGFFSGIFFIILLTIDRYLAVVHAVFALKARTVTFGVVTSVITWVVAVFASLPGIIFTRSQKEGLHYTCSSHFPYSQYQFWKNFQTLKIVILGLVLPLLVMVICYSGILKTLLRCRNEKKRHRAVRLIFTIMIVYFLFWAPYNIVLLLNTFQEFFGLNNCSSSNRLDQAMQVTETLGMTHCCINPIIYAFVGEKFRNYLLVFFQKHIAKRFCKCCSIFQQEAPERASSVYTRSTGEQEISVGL

Compound	IC50 [nM]
Cc1ccc(-c2nc(CN3CCC(N(Cc4ccccc4)C(=O)Nc4ccccc4)CC3)c(C)[nH]2)cc1 [1-Benzyl-1-[1-[5-methyl-2-(4-methylphenyl)-1H-imidazol-4-ylmethyl]-4-piperidinyl]-3-phenylurea]	30
Cc1[nH]c(-c2ccc(C(F)(F)F)cc2)nc1CN1CCC(N(Cc2ccccc2)C(=O)Nc2ccc([N+](=O)[O-])cc2)CC1 [1-Benzyl-1-[1-[[2-[4-(trifluoromethyl)phenyl]-5-methyl-1H-imidazol-4-yl]methyl]-4-piperidinyl]-3-(4-nitrophenyl)urea]	450
CNC(=O)N(Cc1ccccc1)C1CCN(Cc2c(C)nc(-c3ccc(C(F)(F)F)cc3)n2Cc2ccccc2)CC1 [1-Benzyl-1-[1-[[3-benzyl-5-methyl-2-[4-(trifluoromethyl)phenyl]-3H-imidazol-4-yl]methyl]-4-piperidinyl]-3-methylurea]	1100
CNC(=O)N(Cc1ccccc1)C1CCN(Cc2nc(-c3ccccc3OC)[nH]c2C)CC1 [1-Benzyl-1-{1-[2-(2-methoxy-phenyl)-5-methyl-1H-imidazol-4-ylmethyl]-piperidin-4-yl}-3-methyl-urea]	9600
CNC(=O)N(Cc1ccccc1)C1CCN(Cc2nc(-c3ccc(C(F)(F)F)cc3)[nH]c2C)CC1 [1-Benzyl-3-methyl-1-[1-[[5-methyl-2-[4-(trifluoromethyl)phenyl]-1H-imidazol-4-yl]methyl]-4-piperidinyl]urea]	110
CNC(=O)N(Cc1ccccc1)C1CCN(Cc2nc(-c3ccc(C(F)(F)F)cc3)[nH]c2-c2ccccc2)CC1 [1-Benzyl-3-methyl-1-[1-[[5-phenyl-2-[4-(trifluoromethyl)phenyl]-1H-imidazol-4-yl]methyl]-4-piperidinyl]urea]	19100
